Earlier results as cited in paper PMC7451048 (Drug metabolism letters, 2019).

How the values were obtained:
[1] = co-administration of clopidogrel and ticlopidine; ref [25]; cited from earlier work
[2] = biological target: T1, BCRP (Homo sapiens, UniProt Q9UNQ0); conditions: read-out: Km for BCRP; membrane vesicles isolated from human placenta; ref [61]; cited from earlier work
T1 sequence (Q9UNQ0 1-655): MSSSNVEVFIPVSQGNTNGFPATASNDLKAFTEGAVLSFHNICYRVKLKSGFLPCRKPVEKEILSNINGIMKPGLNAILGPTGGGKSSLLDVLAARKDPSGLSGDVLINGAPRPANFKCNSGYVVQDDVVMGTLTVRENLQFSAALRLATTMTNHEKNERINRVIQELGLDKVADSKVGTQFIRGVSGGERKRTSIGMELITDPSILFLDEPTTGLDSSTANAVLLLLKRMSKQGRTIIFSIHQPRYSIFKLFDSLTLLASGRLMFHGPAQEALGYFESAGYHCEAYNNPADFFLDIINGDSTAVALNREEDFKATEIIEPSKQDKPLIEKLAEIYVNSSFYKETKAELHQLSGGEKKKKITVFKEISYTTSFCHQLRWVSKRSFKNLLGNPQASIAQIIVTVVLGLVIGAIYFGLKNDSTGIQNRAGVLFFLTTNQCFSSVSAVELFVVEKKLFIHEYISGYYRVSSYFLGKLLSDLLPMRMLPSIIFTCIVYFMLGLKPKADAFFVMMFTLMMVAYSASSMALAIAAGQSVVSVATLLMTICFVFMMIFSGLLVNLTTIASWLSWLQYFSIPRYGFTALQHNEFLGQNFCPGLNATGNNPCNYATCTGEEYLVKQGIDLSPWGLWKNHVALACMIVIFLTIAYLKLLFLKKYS

[3] = biological target: P-gp (Homo sapiens, UniProt P08183); conditions: read-out: Km for P-gp; membrane vesicles isolated from human placenta; ref [61]; cited from earlier work
Sequence of P-gp (P08183 whole entry): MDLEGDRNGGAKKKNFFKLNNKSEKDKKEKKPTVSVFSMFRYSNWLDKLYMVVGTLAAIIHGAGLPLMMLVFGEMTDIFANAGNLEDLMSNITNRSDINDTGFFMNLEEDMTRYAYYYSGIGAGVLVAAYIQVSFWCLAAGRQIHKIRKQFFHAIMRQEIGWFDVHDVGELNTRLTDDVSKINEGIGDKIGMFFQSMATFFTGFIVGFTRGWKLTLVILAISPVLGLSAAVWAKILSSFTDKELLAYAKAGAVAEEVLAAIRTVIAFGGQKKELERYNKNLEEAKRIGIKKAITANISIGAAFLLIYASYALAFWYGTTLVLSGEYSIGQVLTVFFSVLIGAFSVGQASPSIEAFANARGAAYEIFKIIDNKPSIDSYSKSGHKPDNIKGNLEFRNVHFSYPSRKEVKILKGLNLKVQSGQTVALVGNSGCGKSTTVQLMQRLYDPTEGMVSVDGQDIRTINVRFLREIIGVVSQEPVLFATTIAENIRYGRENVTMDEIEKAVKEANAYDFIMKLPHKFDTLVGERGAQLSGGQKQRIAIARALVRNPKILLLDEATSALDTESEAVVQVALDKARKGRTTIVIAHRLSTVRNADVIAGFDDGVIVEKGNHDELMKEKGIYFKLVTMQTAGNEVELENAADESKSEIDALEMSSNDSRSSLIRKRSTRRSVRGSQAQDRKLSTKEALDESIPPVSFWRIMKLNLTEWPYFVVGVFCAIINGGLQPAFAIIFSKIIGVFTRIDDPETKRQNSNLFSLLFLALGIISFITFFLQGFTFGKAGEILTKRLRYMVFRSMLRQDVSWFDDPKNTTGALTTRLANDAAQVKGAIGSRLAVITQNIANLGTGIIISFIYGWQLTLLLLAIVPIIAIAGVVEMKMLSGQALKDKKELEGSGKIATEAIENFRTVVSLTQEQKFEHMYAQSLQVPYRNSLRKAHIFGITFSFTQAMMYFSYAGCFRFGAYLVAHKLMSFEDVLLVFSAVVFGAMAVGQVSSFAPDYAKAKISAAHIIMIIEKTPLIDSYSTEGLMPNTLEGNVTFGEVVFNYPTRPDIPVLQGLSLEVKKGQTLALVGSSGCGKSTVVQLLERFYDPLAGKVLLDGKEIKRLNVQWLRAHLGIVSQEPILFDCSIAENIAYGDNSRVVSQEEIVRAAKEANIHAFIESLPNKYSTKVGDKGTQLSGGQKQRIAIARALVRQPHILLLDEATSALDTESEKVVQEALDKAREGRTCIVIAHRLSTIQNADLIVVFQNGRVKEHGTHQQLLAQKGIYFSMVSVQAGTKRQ

## CC(NC(C)(C)C)C(=O)c1cccc(Cl)c1 (stereo not shown) [BUP, Bupropion]
[1]
  Difference in half-life: no significant difference
  Increase in systemic exposure (AUC): 36–61%
[2]
  Km: 3 µM
[3]
  Km: 0.5 µM
